Measurements: US20250084056A1, “SUBSTITUTED OXOISOINDOLINYL PIPERIDINE-2,6-DIONE COMPOUNDS” (BRISTOL-MYERS SQUIBB COMPANY, priority 2023, published 2025)

Tests used:
Assay type in all cases: cell-based
[1] = test system: Phospho-Rb (Ser807/811); assay: Phospho-Retinoblastoma (pRB) Cellular Assay; conditions: Homo sapiens, OVCAR-3, NIH OVCAR3 cells, 24 hours; for IC50: concentration giving 50% response; for Emax: maximum response, reference compound at 10 μM = 100%, read-out: pRB Ymax
Summary of the method: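 Phospho-Rb (Ser807/811) kit read-out on EnVision after lysis (≥4 h, room temperature, dark) of OVCAR3 cells exposed to compound dilutions for 24 h. IC50 and maximum response Ymax are relative to a 10 μM reference compound defining 100%.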

[2] = target: GSPT1 (Homo sapiens, UniProt P15170+Q96SW2); assay: GSPT1 Cellular Degradation Assay (DF15-GSPT1-ePL); design: expressed in transfected cells; conditions: DF15-GSPT1-ePL cells, 20 hours
Summary of the method: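 DC50 and Dmax were derived from chemiluminescence, with 75% response set by the reference compound at […]. Readout was ePL enzyme-fragment complementation in a DF15 line expressing chimeric GSPT1. Cells were exposed to compound for 20 h at 37 °C in RPMI 1640 with 10% FBS, cooled 30 min, then lysed with substrate for 60 min.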

[3] = target: Cyclin E1 (Homo sapiens, UniProt P24864+Q96SW2); assay: Cyclin E1 Cellular Degradation Assay (MSD); design: endogenous in cells; host or cells: OVCAR3; conditions: for DC50 / Dmax: Cyclin E1 cellular degradation; for Dmax: maximum degradation; for Ratio of GSPT1 DC50/Cyclin E1 DC50: selectivity for degradation of Cyclin E1 over GSPT1
Summary of the method: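 Cyclin E1 remaining after 24 h compound exposure of OVCAR3 cells was quantified in lysates by electrochemiluminescent MSD sandwich assay. DC50 (50% response concentration) and Dmax (maximum response) were calculated, with 110% response set by a reference compound at […].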

Sequence of GSPT1 (P15170 whole entry, the tested form may be a part): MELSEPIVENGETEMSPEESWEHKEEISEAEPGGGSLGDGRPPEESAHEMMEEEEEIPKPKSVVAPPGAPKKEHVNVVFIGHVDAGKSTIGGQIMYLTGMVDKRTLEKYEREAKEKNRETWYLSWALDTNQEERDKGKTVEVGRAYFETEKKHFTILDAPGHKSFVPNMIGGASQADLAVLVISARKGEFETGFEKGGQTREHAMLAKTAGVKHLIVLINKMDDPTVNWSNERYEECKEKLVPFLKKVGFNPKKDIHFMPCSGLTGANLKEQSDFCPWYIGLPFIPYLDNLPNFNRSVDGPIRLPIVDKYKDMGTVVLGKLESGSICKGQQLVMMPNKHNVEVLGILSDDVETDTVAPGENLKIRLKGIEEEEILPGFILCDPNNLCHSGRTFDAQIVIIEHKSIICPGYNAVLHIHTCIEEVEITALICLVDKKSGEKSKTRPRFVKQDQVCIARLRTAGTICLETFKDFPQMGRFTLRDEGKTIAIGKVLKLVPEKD
Sequence of GSPT1 (Q96SW2 whole entry, the tested form may be a part): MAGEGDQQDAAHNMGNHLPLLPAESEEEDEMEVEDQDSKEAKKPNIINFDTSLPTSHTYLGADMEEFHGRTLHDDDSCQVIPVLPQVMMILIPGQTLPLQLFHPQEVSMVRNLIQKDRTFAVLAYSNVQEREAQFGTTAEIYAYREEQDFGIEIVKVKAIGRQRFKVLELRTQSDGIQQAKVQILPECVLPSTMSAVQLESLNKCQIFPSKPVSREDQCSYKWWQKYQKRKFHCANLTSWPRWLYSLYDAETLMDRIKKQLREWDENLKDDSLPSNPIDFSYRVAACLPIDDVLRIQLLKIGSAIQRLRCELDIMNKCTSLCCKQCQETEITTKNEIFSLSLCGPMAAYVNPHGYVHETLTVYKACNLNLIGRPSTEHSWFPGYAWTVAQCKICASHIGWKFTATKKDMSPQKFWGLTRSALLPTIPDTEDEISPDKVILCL
Sequence of GSPT1 (Q16531 whole entry partner, the tested form may be a part): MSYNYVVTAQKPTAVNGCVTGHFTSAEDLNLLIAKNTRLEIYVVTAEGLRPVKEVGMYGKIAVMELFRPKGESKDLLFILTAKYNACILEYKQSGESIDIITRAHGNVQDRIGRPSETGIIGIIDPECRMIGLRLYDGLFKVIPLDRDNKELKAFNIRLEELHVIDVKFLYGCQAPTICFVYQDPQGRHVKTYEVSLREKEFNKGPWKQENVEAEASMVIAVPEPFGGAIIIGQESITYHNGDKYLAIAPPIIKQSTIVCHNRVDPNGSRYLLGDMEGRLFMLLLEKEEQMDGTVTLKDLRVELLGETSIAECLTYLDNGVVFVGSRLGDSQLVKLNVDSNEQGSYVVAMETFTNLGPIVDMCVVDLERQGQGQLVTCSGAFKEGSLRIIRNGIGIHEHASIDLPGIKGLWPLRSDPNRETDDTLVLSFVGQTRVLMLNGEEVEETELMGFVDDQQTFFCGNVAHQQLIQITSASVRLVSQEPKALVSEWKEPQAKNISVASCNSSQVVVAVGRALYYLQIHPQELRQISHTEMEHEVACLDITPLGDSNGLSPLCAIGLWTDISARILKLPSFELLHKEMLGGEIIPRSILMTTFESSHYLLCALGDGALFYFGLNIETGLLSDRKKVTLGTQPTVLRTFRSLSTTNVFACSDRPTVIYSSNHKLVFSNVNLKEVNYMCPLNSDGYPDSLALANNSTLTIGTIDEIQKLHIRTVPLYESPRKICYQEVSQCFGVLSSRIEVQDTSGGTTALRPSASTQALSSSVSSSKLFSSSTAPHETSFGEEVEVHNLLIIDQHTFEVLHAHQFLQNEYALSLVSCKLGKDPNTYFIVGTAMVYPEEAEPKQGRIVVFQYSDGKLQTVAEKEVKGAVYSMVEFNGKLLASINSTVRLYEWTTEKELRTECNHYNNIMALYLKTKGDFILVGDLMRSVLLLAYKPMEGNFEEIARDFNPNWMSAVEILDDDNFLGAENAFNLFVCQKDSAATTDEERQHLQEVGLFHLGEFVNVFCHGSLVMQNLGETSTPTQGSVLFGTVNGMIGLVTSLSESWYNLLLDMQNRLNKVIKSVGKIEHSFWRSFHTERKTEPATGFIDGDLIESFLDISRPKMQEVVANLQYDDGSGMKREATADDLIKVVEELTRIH
Sequence of Cyclin E1 (P24864 whole entry): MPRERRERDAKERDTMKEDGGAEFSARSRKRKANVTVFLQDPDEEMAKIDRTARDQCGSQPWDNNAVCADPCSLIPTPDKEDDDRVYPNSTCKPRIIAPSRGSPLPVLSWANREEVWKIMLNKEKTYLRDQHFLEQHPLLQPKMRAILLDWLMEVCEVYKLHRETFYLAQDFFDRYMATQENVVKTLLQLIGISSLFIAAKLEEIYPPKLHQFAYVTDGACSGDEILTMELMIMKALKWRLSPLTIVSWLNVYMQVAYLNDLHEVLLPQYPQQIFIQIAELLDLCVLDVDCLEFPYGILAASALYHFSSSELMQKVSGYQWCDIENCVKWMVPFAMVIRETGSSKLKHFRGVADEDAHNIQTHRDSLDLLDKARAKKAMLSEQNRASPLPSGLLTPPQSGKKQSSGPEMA
Sequence of Cyclin E1 (Q96SW2 whole entry): as the sequence (Q96SW2 whole entry, the tested form may be a part) above
Sequence of Cyclin E1 (Q16531 whole entry partner): as the sequence (Q16531 whole entry partner, the tested form may be a part) above

Compound	IC50 [1] [nM]	Emax [1] [%]	DC50 [2] [µM]	Dmax [2] [%]	DC50 [3] [nM]	Dmax [3] [%]	Ratio of GSPT1 DC50/Cyclin E1 DC50 [3]
O=C1CCC(N2Cc3ccc(COC(=O)Nc4ccc(Oc5ccc(F)cc5F)cc4F)c(OC4CCOCC4)c3C2=O)C(=O)N1 (centres unmarked) [Example 136, [2-(2,6-dioxopiperidin-3-yl)-4-(oxan-4-yloxy)-3-oxo-2,3-dihydro-1H-isoindol-5-yl]methyl N-[4-(2,4-difluorophenoxy)-2-fluorophenyl]carbamate]	24	144	> 14	11	38	110	>368
O=C1CCC(N2Cc3ccc(COC(=O)Nc4ccc(Oc5ccc(F)c(F)c5)cc4)c(OC4CCCCC4)c3C2=O)C(=O)N1 (centres unmarked) [Example 137, [4-(cyclohexyloxy)-2-(2,6-dioxopiperidin-3-yl)-3-oxo-2,3-dihydro-1H-isoindol-5-yl]methyl N-[4-(3,4-difluorophenoxy)phenyl]carbamate]	19	123	> 14	1	26	108	>547
CC(C)COc1c(COC(=O)Nc2ccc(Oc3ccc(F)c(F)c3)cc2)ccc2c1C(=O)N(C1CCC(=O)NC1=O)C2 (centres unmarked) [Example 138, [2-(2,6-dioxopiperidin-3-yl)-4-(2-methylpropoxy)-3-oxo-2,3-dihydro-1H-isoindol-5-yl]methyl N-[4-(3,4-difluorophenoxy)phenyl]carbamate]	45	120	> 14	9	173	108	>81
O=C1CCC(N2Cc3ccc(COC(=O)Nc4ccc(Oc5ccc(F)cc5F)cc4)c(OC4CCOCC4)c3C2=O)C(=O)N1 (centres unmarked) [Example 139, [2-(2,6-dioxopiperidin-3-yl)-4-(oxan-4-yloxy)-3-oxo-2,3-dihydro-1H-isoindol-5-yl]methyl N-[4-(2,4-difluorophenoxy)phenyl]carbamate]	27	170	> 14	8	67	105	>210
O=C1CCC(N2Cc3ccc(COC(=O)Nc4ccc(Oc5cc(F)cc(F)c5)cc4F)c(OC4CCOCC4)c3C2=O)C(=O)N1 (centres unmarked) [Example 140, [2-(2,6-dioxopiperidin-3-yl)-4-(oxan-4-yloxy)-3-oxo-2,3-dihydro-1H-isoindol-5-yl]methyl N-[4-(3,5-difluorophenoxy)-2-fluorophenyl]carbamate]	16	132	> 14	0	30	105	>474
O=C1CCC(N2Cc3ccc(COC(=O)Nc4ccc(Oc5ccc(F)c(F)c5)cc4)c(O[C@@H]4CCCOC4)c3C2=O)C(=O)N1 (stereo partly drawn) [Example 141, [2-(2,6-dioxopiperidin-3-yl)-4-[(3R)-oxan-3-yloxy]-3-oxo-2,3-dihydro-1H-isoindol-5-yl]methyl N-[4-(3,4-difluorophenoxy)phenyl]carbamate]	55	136	> 14	9	34	112	>418
O=C1CCC(N2Cc3ccc(COC(=O)Nc4ccc(Oc5ccccc5)cc4)c(O[C@@H]4CCCOC4)c3C2=O)C(=O)N1 (stereo partly drawn) [Example 142, [2-(2,6-dioxopiperidin-3-yl)-4-[(3R)-oxan-3-yloxy]-3-oxo-2,3-dihydro-1H-isoindol-5-yl]methyl N-(4-phenoxyphenyl)carbamate]	145	139	> 14	4	22	108	>635
O=C1CCC(N2Cc3ccc(COC(=O)Nc4ccc(Oc5cccc(F)c5)cc4)c(O[C@@H]4CCCOC4)c3C2=O)C(=O)N1 (stereo partly drawn) [Example 143, [2-(2,6-dioxopiperidin-3-yl)-4-[(3R)-oxan-3-yloxy]-3-oxo-2,3-dihydro-1H-isoindol-5-yl]methyl N-[4-(3-fluorophenoxy)phenyl]carbamate]	66	153	> 14	8	31	110	>445
